Where two headings read alike, the source gives them in different places.
Target: T1, recombinant human NK3 receptor (Homo sapiens, UniProt P29371)
T1 construct: expressed in transfected cells; host or cells: HEK293 cells, transient expression; membranes
T1 sequence (P29371 1-465): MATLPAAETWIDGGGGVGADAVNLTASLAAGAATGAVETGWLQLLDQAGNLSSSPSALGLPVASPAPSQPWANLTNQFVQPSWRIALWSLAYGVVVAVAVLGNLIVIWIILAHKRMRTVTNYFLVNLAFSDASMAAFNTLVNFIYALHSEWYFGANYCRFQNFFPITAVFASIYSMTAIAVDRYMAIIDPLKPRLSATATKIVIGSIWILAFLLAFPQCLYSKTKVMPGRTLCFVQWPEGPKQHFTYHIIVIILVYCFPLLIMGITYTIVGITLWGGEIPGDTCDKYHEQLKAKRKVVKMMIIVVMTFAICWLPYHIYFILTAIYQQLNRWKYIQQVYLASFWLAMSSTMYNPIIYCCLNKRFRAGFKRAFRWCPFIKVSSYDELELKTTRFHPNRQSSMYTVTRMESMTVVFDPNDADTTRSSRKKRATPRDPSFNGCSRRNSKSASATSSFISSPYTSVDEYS
Experiment: [3H]SR142801 competition binding assay

[1] = hNK-3 receptor affinity, membranes from HEK293 cells transiently expressing recombinant human NK3 receptor, [3H]SR142801, Cheng-Prussoff, read-out: Data Ki

| Compound | Ki | Ki [1] | further results |
| --- | --- | --- | --- |
| CN(C(=O)Oc1ccc(F)cc1)[C@@H]1CN(C(=O)C2CCN(c3ccc(C(N)=O)cn3)CC2)C[C@H]1c1ccc(Cl)cc1 [Example 196, [(3S,4R)-1-(5′-Carbamoyl-3,4,5,6-tetrahydro-2H-[1,2′]bipyridinyl-4-carbonyl)-4-(4-chloro-phenyl)-pyrrolidin-3-yl]-methyl-carbamic acid 4-fluoro-phenyl ester] | 2.2 nM | – | – |
| COc1ccc(N2CCC(C(=O)N3C[C@@H](N(C)C(=O)Oc4ccc(F)cc4)[C@H](c4ccc(Cl)cc4)C3)CC2)nn1 [Example 197, {(3S,4R)-4-(4-Chloro-phenyl)-1-[1-(6-methoxy-pyridazin-3-yl)-piperidine-4-carbonyl]-pyrrolidin-3-yl}-methyl-carbamic acid 4-fluoro-phenyl ester] | 2.6 nM | – | – |
| CN(C(=O)Oc1ccc(F)cc1)[C@@H]1CN(C(=O)C2CCN(c3ccc(C#N)nc3)CC2)C[C@H]1c1ccc(Cl)cc1 [Example 198, [(3S,4R)-4-(4-Chloro-phenyl)-1-(6′-cyano-3,4,5,6-tetrahydro-2H-[1,3]bipyridinyl-4-carbonyl)-pyrrolidin-3-yl]-methyl-carbamic acid 4-fluoro-phenyl ester] | 0.5 nM | – | – |
| CN(C(=O)Oc1ccc(F)cc1)[C@@H]1CN(C(=O)C2CCN(c3ccc(Cl)cn3)CC2)C[C@H]1c1ccc(Cl)cc1 [Example 199, [(3S,4R)-4-(4-Chloro-phenyl)-1-(5′-chloro-3,4,5,6-tetrahydro-2H-[1,2′]bipyridinyl-4-carbonyl)-pyrrolidin-3-yl]-methyl-carbamic acid 4-fluoro-phenyl ester] | 0.9 nM | – | – |
| CN(C(=O)Oc1ccccc1)[C@@H]1CN(C(=O)C2CCN(c3ccc(C#N)cn3)CC2)C[C@H]1c1ccc(Cl)cc1 [Example 200, [(3S,4R)-4-(4-Chloro-phenyl)-1-(5′-cyano-3,4,5,6-tetrahydro-2H-[1,2′]bipyridinyl-4-carbonyl)-pyrrolidin-3-yl]-methyl-carbamic acid phenyl ester] | 7.2 nM | – | – |
| COc1ccc(OC(=O)N(C)[C@@H]2CN(C(=O)C3CCN(c4ccc(C#N)cn4)CC3)C[C@H]2c2ccc(Cl)cc2)cc1 [Example 201, [(3S,4R)-4-(4-Chloro-phenyl)-1-(5′-cyano-3,4,5,6-tetrahydro-2H-[1,2′]bipyridinyl-4-carbonyl)-pyrrolidin-3-yl]-methyl-carbamic acid 4-methoxy-phenyl ester] | 3.3 nM | – | – |
| Cc1ccc(OC(=O)N(C)[C@@H]2CN(C(=O)C3CCN(c4ccc(C#N)cn4)CC3)C[C@H]2c2ccc(Cl)cc2)cc1 [Example 202, [(3S,4R)-4-(4-Chloro-phenyl)-1-(5′-cyano-3,4,5,6-tetrahydro-2H-[1,2′]bipyridinyl-4-carbonyl)-pyrrolidin-3-yl]-methyl-carbamic acid p-tolyl ester] | 4.3 nM | – | – |
| CN(C(=O)Oc1ccc(Cl)cc1)[C@@H]1CN(C(=O)C2CCN(c3ccc(C#N)cn3)CC2)C[C@H]1c1ccc(Cl)cc1 [Example 203, [(3S,4R)-4-(4-Chloro-phenyl)-1-(5′-cyano-3,4,5,6-tetrahydro-2H-[1,2′]bipyridinyl-4-carbonyl)-pyrrolidin-3-yl]-methyl-carbamic acid 4-chloro-phenyl ester] | 0.3 nM | – | – |
| CN(C(=O)OC1CCCC1)[C@@H]1CN(C(=O)C2CCN(c3ccc(C#N)cn3)CC2)C[C@H]1c1ccc(Cl)cc1 [Example 204, [(3S,4R)-4-(4-Chloro-phenyl)-1-(5′-cyano-3,4,5,6-tetrahydro-2H-[1,2′]bipyridinyl-4-carbonyl)-pyrrolidin-3-yl]-methyl-carbamic acid cyclopentyl ester] | – | 41.2 nM | – |
| CN(C(=O)OCC(C)(C)C)[C@@H]1CN(C(=O)C2CCN(c3ccc(C#N)cn3)CC2)C[C@H]1c1ccc(Cl)cc1 [Example 205, [(3S,4R)-4-(4-Chloro-phenyl)-1-(5′-cyano-3,4,5,6-tetrahydro-2H-[1,2′]bipyridinyl-4-carbonyl)-pyrrolidin-3-yl]-methyl-carbamic acid 2,2-dimethyl-propyl ester] | 5.7 nM | – | – |
| COCCOC(=O)N(C)[C@@H]1CN(C(=O)C2CCN(c3ccc(C#N)cn3)CC2)C[C@H]1c1ccc(Cl)cc1 [Example 206, [(3S,4R)-4-(4-Chloro-phenyl)-1-(5′-cyano-3,4,5,6-tetrahydro-2H-[1,2′]bipyridinyl-4-carbonyl)-pyrrolidin-3-yl]-methyl-carbamic acid 2-methoxy-ethyl ester] | – | 90.6 nM | – |
| CN(C(=O)Oc1ccc(C(F)(F)F)cc1)[C@@H]1CN(C(=O)C2CCN(c3ccc(C#N)cn3)CC2)C[C@H]1c1ccc(Cl)cc1 [Example 207, [(3S,4R)-4-(4-Chloro-phenyl)-1-(5′-cyano-3,4,5,6-tetrahydro-2H-[1,2′]bipyridinyl-4-carbonyl)-pyrrolidin-3-yl]-methyl-carbamic acid 4-trifluoromethyl-phenyl ester] | 0.6 nM | – | – |
| CN(C(=O)Oc1ccc(F)cc1F)[C@@H]1CN(C(=O)C2CCN(c3ccc(C#N)cn3)CC2)C[C@H]1c1ccc(Cl)cc1 [Example 208, [(3S,4R)-4-(4-Chloro-phenyl)-1-(5′-cyano-3,4,5,6-tetrahydro-2H-[1,2′]bipyridinyl-4-carbonyl)-pyrrolidin-3-yl]-methyl-carbamic acid 2,4-difluoro-phenyl ester] | 0.4 nM | – | – |
| CN(C(=O)Oc1ccc(F)c(F)c1)[C@@H]1CN(C(=O)C2CCN(c3ccc(C#N)cn3)CC2)C[C@H]1c1ccc(Cl)cc1 [Example 209, [(3S,4R)-4-(4-Chloro-phenyl)-1-(5′-cyano-3,4,5,6-tetrahydro-2H-[1,2′]bipyridinyl-4-carbonyl)-pyrrolidin-3-yl]-methyl-carbamic acid 3,4-difluoro-phenyl ester] | 0.8 nM | – | – |
| CN(C(=O)Oc1cc(F)cc(F)c1)[C@@H]1CN(C(=O)C2CCN(c3ccc(C#N)nc3)CC2)C[C@H]1c1ccc(Cl)cc1 [Example 210, [(3S,4R)-4-(4-Chloro-phenyl)-1-(6′-cyano-3,4,5,6-tetrahydro-2H-[1,3]bipyridinyl-4-carbonyl)-pyrrolidin-3-yl]-methyl-carbamic acid 3,5-difluoro-phenyl ester] | – | – | Ki (read-out: Data Ki): 4.6 nM |
| CN(C(=O)Oc1cccc(F)c1F)[C@@H]1CN(C(=O)C2CCN(c3ccc(C#N)cn3)CC2)C[C@H]1c1ccc(Cl)cc1 [Example 211, [(3S,4R)-4-(4-Chloro-phenyl)-1-(5′-cyano-3,4,5,6-tetrahydro-2H-[1,2′]bipyridinyl-4-carbonyl)-pyrrolidin-3-yl]-methyl-carbamic acid 2,3-difluoro-phenyl ester] | 2.4 nM | – | – |
| CN(C(=O)Oc1ccccc1F)[C@@H]1CN(C(=O)C2CCN(c3ccc(C#N)cn3)CC2)C[C@H]1c1ccc(Cl)cc1 [Example 212, [(3S,4R)-4-(4-Chloro-phenyl)-1-(5′-cyano-3,4,5,6-tetrahydro-2H-[1,2′]bipyridinyl-4-carbonyl)-pyrrolidin-3-yl]-methyl-carbamic acid 2-fluoro-phenyl ester] | 1.4 nM | – | – |
| CN(C(=O)Oc1ccccc1Cl)[C@@H]1CN(C(=O)C2CCN(c3ccc(C#N)cn3)CC2)C[C@H]1c1ccc(Cl)cc1 [Example 213, [(3S,4R)-4-(4-Chloro-phenyl)-1-(5′-cyano-3,4,5,6-tetrahydro-2H-[1,2′]bipyridinyl-4-carbonyl)-pyrrolidin-3-yl]-methyl-carbamic acid 2-chloro-phenyl ester] | 7.2 nM | – | – |
| CN(C(=O)OCCCF)[C@@H]1CN(C(=O)C2CCN(c3ccc(C#N)cn3)CC2)C[C@H]1c1ccc(Cl)cc1 [Example 214, [(3S,4R)-4-(4-Chloro-phenyl)-1-(5′-cyano-3,4,5,6-tetrahydro-2H-[1,2′]bipyridinyl-4-carbonyl)-pyrrolidin-3-yl]-methyl-carbamic acid 3-fluoro-propyl ester] | – | 94.2 nM | – |
| CN(C(=O)OCC1CC1)[C@@H]1CN(C(=O)C2CCN(c3ccc(C#N)cn3)CC2)C[C@H]1c1ccc(Cl)cc1 [Example 215, [(3S,4R)-4-(4-Chloro-phenyl)-1-(5′-cyano-3,4,5,6-tetrahydro-2H-[1,2′]bipyridinyl-4-carbonyl)-pyrrolidin-3-yl]-methyl-carbamic acid cyclopropylmethyl ester] | – | 8.4 nM | – |
| COCCCOC(=O)N(C)[C@@H]1CN(C(=O)C2CCN(c3ccc(C#N)cn3)CC2)C[C@H]1c1ccc(Cl)cc1 [Example 216, [(3S,4R)-4-(4-Chloro-phenyl)-1-(5′-cyano-3,4,5,6-tetrahydro-2H-[1,2′]bipyridinyl-4-carbonyl)-pyrrolidin-3-yl]-methyl-carbamic acid 3-methoxy-propyl ester] | – | 53.6 nM | – |
| CN(C(=O)OCC1(C)CC1)[C@@H]1CN(C(=O)C2CCN(c3ccc(C#N)cn3)CC2)C[C@H]1c1ccc(Cl)cc1 [Example 217, [(3S,4R)-4-(4-Chloro-phenyl)-1-(5′-cyano-3,4,5,6-tetrahydro-2H-[1,2′]bipyridinyl-4-carbonyl)-pyrrolidin-3-yl]-methyl-carbamic acid 1-methyl-cyclopropylmethyl ester] | – | 7.7 nM | – |
| CN(C(=O)OCC1(C)COC1)[C@@H]1CN(C(=O)C2CCN(c3ccc(C#N)cn3)CC2)C[C@H]1c1ccc(Cl)cc1 [Example 218, [(3S,4R)-4-(4-Chloro-phenyl)-1-(5′-cyano-3,4,5,6-tetrahydro-2H-[1,2′]bipyridinyl-4-carbonyl)-pyrrolidin-3-yl]-methyl-carbamic acid 3-methyl-oxetan-3-ylmethyl ester] | – | 19.5 nM | – |

— patent US9226916B2, “Pyrrolidine derivatives” (HOFFMANN-LA ROCHE INC., priority 2009, dated 2016)
